Calls of active or inactive are those of the source. No cut-off for these calls is given here.
How the values were obtained:
A549 [1] = assay: Cytotoxicity against human A549 cells assessed as decrease in cell viability by MTT assay; type: functional, cell-based
MOLT-4 [2] = assay: Cytotoxicity against human MOLT4 cells assessed as decrease in cell viability by MTT assay; type: functional, cell-based
HeLa = assay: Cytotoxicity against human HeLa cells assessed as decrease in cell viability by MTT assay; type: functional, cell-based
A549 [3] = assay: Induction of apoptosis in human A549 cells assessed as change in cell morphology at IC50 after 24 hrs by acridine orange/ethidium bromide staining-based fluorescence microscopic method; type: functional
MOLT-4 [4] = assay: Induction of apoptosis in human MOLT4 cells assessed as change in cell morphology at IC50 after 24 hrs by acridine orange/ethidium bromide staining-based fluorescence microscopic method; type: functional
A549 [5] = assay: Induction of apoptosis in human A549 cells assessed as early apoptotic cells at IC50 after 24 hrs by annexin V-FITC/propidium iodide staining-based flow cytometric method (reference value: 0.93%); type: functional
A549 [6] = assay: Induction of apoptosis in human A549 cells assessed as late apoptotic cells at IC50 after 24 hrs by annexin V-FITC/propidium iodide staining-based flow cytometric method (reference value: 0.06%); type: functional
A549 [7] = assay: Induction of apoptosis in human A549 cells assessed as necrotic cells at IC50 after 24 hrs by annexin V-FITC/propidium iodide staining-based flow cytometric method relative to control; type: functional
A549 [8] = assay: Induction of apoptosis in human A549 cells assessed as viable cells at IC50 after 24 hrs by annexin V-FITC/propidium iodide staining-based flow cytometric method (reference value: 99.01%); type: functional
MOLT-4 [9] = assay: Induction of apoptosis in human MOLT4 cells assessed as early apoptotic cells at IC50 after 24 hrs by annexin V-FITC/propidium iodide staining-based flow cytometric method (reference value: 2.18%); type: functional
MOLT-4 [10] = assay: Induction of apoptosis in human MOLT4 cells assessed as late apoptotic cells at IC50 after 24 hrs by annexin V-FITC/propidium iodide staining-based flow cytometric method (reference value: 0.02%); type: functional
MOLT-4 [11] = assay: Induction of apoptosis in human MOLT4 cells assessed as necrotic cells at IC50 after 24 hrs by annexin V-FITC/propidium iodide staining-based flow cytometric method (reference value: 0.03%); type: functional
MOLT-4 [12] = assay: Induction of apoptosis in human MOLT4 cells assessed as viable cells at IC50 after 24 hrs by annexin V-FITC/propidium iodide staining-based flow cytometric method (reference value: 97.78%); type: functional

| Structure (SMILES) | IC50 (A549 [1]) | IC50 (MOLT-4 [2]) | IC50 (HeLa) | other results |
| --- | --- | --- | --- | --- |
| COc1ccc(Nc2ncnc3c2C(c2ccccc2)c2ccc4ccccc4c2O3)c(OC)c1 (configuration not stated) | 10.9 µM | 6.5 µM | 15.9 µM | – |
| COc1ccc(CCNc2ncnc3c2C(c2ccccc2)c2ccc4ccccc4c2O3)c(OC)c1 (configuration not stated) | 18.9 µM | 14.5 µM | 43.5 µM | – |
| Cc1ccc(Nc2ncnc3c2C(c2ccccc2)c2ccc4ccccc4c2O3)c(C)c1 (configuration not stated) | 11.2 µM | 8.9 µM | 14.6 µM | – |
| c1ccc(CCNc2ncnc3c2C(c2ccccc2)c2ccc4ccccc4c2O3)cc1 (configuration not stated) | 68.5 µM | 16.9 µM | 50.2 µM | – |
| Brc1ccc(Nc2ncnc3c2C(c2ccccc2)c2ccc4ccccc4c2O3)cc1 (configuration not stated) | > 100 µM | 29.4 µM | 31.6 µM | – |
| c1ccc(Nc2ncnc3c2C(c2ccccc2)c2ccc4ccccc4c2O3)cc1 (configuration not stated) | 12.5 µM | 6.6 µM | 6.4 µM | – |
| Clc1ccc(Nc2ncnc3c2C(c2ccccc2)c2ccc4ccccc4c2O3)cc1 (configuration not stated) | 13.7 µM | 16.4 µM | 19.9 µM | – |
| COc1cc(C2c3ccc4ccccc4c3Oc3ncnc(NCc4ccccc4)c32)cc(OC)c1OC (configuration not stated) | 26.5 µM | 10.4 µM | 44.6 µM | – |
| Clc1ccccc1CNc1ncnc2c1C(c1ccccc1)c1ccc3ccccc3c1O2 (configuration not stated) | 9.6 µM | 11.7 µM | 15.4 µM | – |
| CCc1ccc(Nc2ncnc3c2C(c2ccccc2)c2ccc4ccccc4c2O3)cc1 (configuration not stated) | 17.4 µM | 17.6 µM | 14.5 µM | – |
| COc1ccc(OC)c(C2c3ccc4ccccc4c3Oc3ncnc(Nc4ccc(F)cc4)c32)c1 (configuration not stated) | 8.4 µM | 6.8 µM | 10.5 µM | – |
| COc1ccc(OC)c(C2c3ccc4ccccc4c3Oc3ncnc(Nc4ccc(Cl)cc4)c32)c1 (configuration not stated) | 14.8 µM | 7.4 µM | 15.9 µM | – |
| COc1ccc(OC)c(C2c3ccc4ccccc4c3Oc3ncnc(Nc4ccc(Br)cc4)c32)c1 (configuration not stated) | 26.8 µM | 20.4 µM | 16.7 µM | – |
| Fc1ccccc1Nc1ncnc2c1C(c1ccccc1)c1ccc3ccccc3c1O2 (configuration not stated) | 5.4 µM | 12.8 µM | 10.3 µM | Activity (A549 [3]): Active; Activity (MOLT-4 [4]): Active; Activity (A549 [5]): 34.92%; Activity (A549 [6]): 2.72%; Activity (A549 [7]): 0.29%; Activity (A549 [8]): 62.07% |
| c1ccc(CNc2ncnc3c2C(c2ccccc2)c2ccc4ccccc4c2O3)cc1 (configuration not stated) | 10.9 µM | 12.7 µM | 5.9 µM | – |
| COc1cc(C2c3ccc4ccccc4c3Oc3ncnc(NCc4ccccc4Cl)c32)cc(OC)c1OC (configuration not stated) | 22.2 µM | 14.5 µM | 33.2 µM | – |
| COc1ccc(OC)c(C2c3ccc4ccccc4c3Oc3ncnc(Nc4ccccc4F)c32)c1 (configuration not stated) | 6.3 µM | 5.2 µM | 6.9 µM | Activity (A549 [3]): Active; Activity (MOLT-4 [4]): Active; Activity (MOLT-4 [9]): 47.03%; Activity (MOLT-4 [10]): 43.61%; Activity (MOLT-4 [11]): 1.18%; Activity (MOLT-4 [12]): 8.18% |
| COc1cc(C2c3ccc4ccccc4c3Oc3ncnc(Nc4ccccc4)c32)cc(OC)c1OC (configuration not stated) | 18.6 µM | 9.8 µM | 20.7 µM | – |
| COc1ccc(Nc2ncnc3c2C(c2cc(OC)ccc2OC)c2ccc4ccccc4c2O3)cc1 (configuration not stated) | 7.2 µM | 6.9 µM | 10.6 µM | – |
| COc1ccc(Nc2ncnc3c2C(c2cc(OC)c(OC)c(OC)c2)c2ccc4ccccc4c2O3)cc1 (configuration not stated) | 46.5 µM | 33.5 µM | > 100 µM | – |
